Reference: patent US7071162B1, “Combined use of cementum attachment protein and cyclosporin a for improved attachment of dental and orthopedic implants” (priority 1997, dated 2006)

Columns and labels:
[1] = system: periodontal ligament cells; test: Attachment and spread of periodontal ligament cells; format: cell-based; settings: for attachment and spread of cells from the periodontal ligament: compared with gingival fibroblasts
Excerpt: Cementum attachment protein (CAP) is a protein of molecular mass approximately 56 kDa present in cementum and specifically expressed by mineralized tissue-forming cells of the periodontium. […] The protein has sequences containing Gly-X-Y repeats typical of a collagen helix. SEQ ID NOS 1-5 are fragments of CAP. One 17-amino-acid peptide, SEQ ID NO 2, has 82% homology with a type XII collagen domain. […] Although another 19-amino-acid-long peptide (SEQ ID NO 3) has 95% homology to bovine al (I) collagen, two other peptides, SEQ ID NOS 4 and 5, are only 79% and 68% homologous.

periodontal cells = settings: CAP-coated surfaces; Pitaru et al. 1995; cited from earlier work

Substance | capacity to promote attachment of periodontal cells after bacterial collagenase ([1]; bacterial collagenase digestion) | capacity to promote attachment of periodontal cells after chondroitinase ABC digestion ([1]; chondroitinase ABC digestion) | attachment and spread of cells from the periodontal ligament [1] | migration and attachment of periodontal cells versus gingival fibroblasts (periodontal cells)
Cementum attachment protein [CAP] | eliminate the capacity of CAP to promote attachment of periodontal cells | had no effect | more efficiently than that of gingival fibroblasts | migrate in response to and attach better to CAP-coated surfaces than do gingival fibroblasts
type XIl collagen: collagen type with a domain 82% homologous to SEQ ID NO 2 of CAP [reference compound] | – | – | does not promote the attachment of periodontal ligament cells | –
